The text below walks through data of US20250296971A1, “GASTRIC INHIBITORY PEPTIDE RECEPTOR LIGANDS” (priority 2021, published 2025).

Molecules are shown by their SMILES. *1 amine or outer side, *2 acyl side, *3 side chain or, on linkers, in order; H or OH if unused. Where a SMILES comes first, the peptide text is derived from it. Bridges are numbered along the chain shown (N, C = ends). [ ]: non-standard residue; d: D form. Trp(5-Cl) = N[C@@H](Cc1c[nH]c2ccc(Cl)cc12)C(=O)O; Pyridine(2,6-diCH2) = c1cc(C[*:1])nc(C[*:2])c1; Oic = O=C(O)[C@@H]1C[C@@H]2CCCC[C@@H]2N1; Pro(4R-NH2) = N[C@H]1CN[C@H](C(=O)O)C1; 1Nal = N[C@@H](Cc1cccc2ccccc12)C(=O)O; mXylylene = c1cc(C[*:1])cc(C[*:2])c1; X7 = c1cc(CSCCN[*:2])cc(C[*:1])c1; Hyp = O=C(O)[C@@H]1C[C@@H](O)CN1; Suc = O=C(CCC(=O)[*:2])[*:1]; Tle = CC(C)(C)[C@H](N)C(=O)O; Pip = O=C(O)[C@@H]1CCCCN1; Thp = NC1(C(=O)O)CCOCC1; Aib = CC(C)(N)C(=O)O

The first test deals with T1, GIPR (CHO-K1-hGIPR cells) (Homo sapiens, UniProt P48546).
T1 construct: host or cells: CHO-K1
T1 sequence (P48546 22-466): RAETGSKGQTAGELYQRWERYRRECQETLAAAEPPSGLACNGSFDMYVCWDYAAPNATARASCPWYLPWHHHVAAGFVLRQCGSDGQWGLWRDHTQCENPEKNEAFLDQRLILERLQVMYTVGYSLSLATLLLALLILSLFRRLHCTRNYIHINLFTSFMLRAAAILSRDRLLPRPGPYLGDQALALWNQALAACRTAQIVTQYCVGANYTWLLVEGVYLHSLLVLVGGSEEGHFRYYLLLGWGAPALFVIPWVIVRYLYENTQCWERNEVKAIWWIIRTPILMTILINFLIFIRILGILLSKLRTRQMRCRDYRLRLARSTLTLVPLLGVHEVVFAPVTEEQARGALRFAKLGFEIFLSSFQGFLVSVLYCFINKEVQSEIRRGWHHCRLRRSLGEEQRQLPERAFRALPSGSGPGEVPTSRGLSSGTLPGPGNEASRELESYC
As to the kind of experiment: FACS binding assay. The conditions noted are these: competition with 20 nM GIP-057, 4° C. for 1 hour, read-out: pIC50 Category (converted). The essentials:
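Steps: detach CHO-K1-hGIPR cells (Accutase); wash in PBS/1% FCS; adjust to 500.000 cells per mL; wash ice-cold; incubate APC-streptavidin 1 μg/mL, 30 min on ice; wash twice; acquire on flow cytometer; fit MFI-concentration data with a four-parameter logistic model.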
On to `CC[C@H](C)[C@@H]1NC(=O)[C@H](CC(C)C)NC(=O)[C@H](C)NC(=O)[C@@H](NC(=O)[C@H](CC(C)C)NC(=O)[C@H](CCC(=O)O)NC(=O)[C@@H]2CCCN2C(=O)[C@H](Cc2c[nH]c3ccccc23)NC(=O)[C@H](Cc2c[nH]c3ccccc23)NC(=O)[C@H](CC(=O)O)NC(=O)[C@H](C)NC(=O)[C@@H](N)CCSC)CSCc2cccc(c2)CSC[C@@H](C(N)=O)NC1=O` [GIP-249] (H-MADWWPELCALIC-NH2; linker 9-13 via mXylylene), for which the IC50 is 10 to 79.4 nM. As to `CC[C@H](C)[C@@H]1NC(=O)[C@H](CC(C)C)NC(=O)[C@@H](C)NC(=O)[C@@H](NC(=O)[C@H](CC(C)C)NC(=O)[C@H](CCC(=O)O)NC(=O)[C@@H]2CCCN2C(=O)[C@H](Cc2c[nH]c3ccccc23)NC(=O)[C@H](Cc2c[nH]c3ccccc23)NC(=O)[C@H](CC(=O)O)NC(C)=O)CSCc2cccc(c2)CSCCNC1=O` [GIP-250, Ac-Asp-Trp-Trp-Pro-Glu-Leu-[Cys(3MeBn)-ala-Leu-Ile-AET]] (Ac-DWWPELC[dA]LI; linker 7-C via X7), the IC50 is 10 to 79.4 nM.

Consider `CC[C@H](C)[C@@H]1NC(=O)[C@H](CC(C)C)NC(=O)C(C)(C)NC(=O)[C@@H](NC(=O)[C@H](CC(C)C)NC(=O)[C@H](CCC(=O)O)NC(=O)[C@@H]2CCCN2C(=O)[C@H](Cc2c[nH]c3ccccc23)NC(=O)[C@H](Cc2c[nH]c3ccccc23)NC(=O)[C@H](CC(=O)O)NC(C)=O)CSCc2cccc(c2)CSCCNC1=O` [GIP-251, Ac-Asp-Trp-Tip-Pro-Glu-Leu-[Cys(3MeBn)-Aib-Leu-Ile-AET]] (Ac-DWWPELC[Aib]LI; linker 7-C via X7), for which the IC50 was 10 to 79.4 nM. `CC[C@H](C)[C@@H]1NC(=O)[C@H](CC(C)C)NC(=O)C(C)(C)NC(=O)[C@@H](NC(=O)[C@H](CC(C)C)NC(=O)[C@H](CCC(=O)O)NC(=O)[C@@H]2C[C@@H]3CCCC[C@@H]3N2C(=O)[C@H](Cc2cccc3ccccc23)NC(=O)[C@H](Cc2c[nH]c3ccccc23)NC(=O)[C@H](CC(=O)O)NC(C)=O)CSCc2cccc(c2)CSC[C@@H](C(N)=O)NC1=O` [GIP-252, Ac-Asp-Trp-1Ni-Pip-Glu-Leu-[Cys(3MeBn)-Aib-Leu-Ile-Cys]-NH2] (Ac-DW[1Nal][Oic]ELC[Aib]LIC-NH2; linker 7-11 via mXylylene): the IC50 was 10 to 79.4 nM. Consider `CC[C@H](C)[C@@H]1NC(=O)[C@H](CC(C)C)NC(=O)C(C)(C)NC(=O)[C@@H](NC(=O)[C@H](CC(C)C)NC(=O)[C@H](CCC(=O)O)NC(=O)[C@@H]2CCCCN2C(=O)[C@H](Cc2cccc3ccccc23)NC(=O)[C@H](Cc2c[nH]c3ccccc23)NC(=O)[C@H](CC(=O)O)NC(C)=O)CSCc2cccc(c2)CSC[C@@H](C(N)=O)NC1=O` [GIP-253, Ac-Asp-Trp-1Ni-Pip-Glu-Leu-[Cys(3MeBn)-Aib-Leu-Ile-Cys]-NH2] (Ac-DW[1Nal][Pip]ELC[Aib]LIC-NH2; linker 7-11 via mXylylene), for which the IC50 is 10 to 79.4 nM. `CC[C@H](C)[C@@H]1NC(=O)[C@H](CC(C)C)NC(=O)[C@H](C)NC(=O)[C@@H](NC(=O)[C@H](CC(C)C)NC(=O)[C@H](CCC(=O)O)NC(=O)[C@@H]2CCCN2C(=O)[C@H](Cc2c[nH]c3ccccc23)NC(=O)[C@H](Cc2c[nH]c3ccccc23)NC(=O)[C@H](CC(=O)O)NC(=O)[C@H](Cc2ccc(O)cc2)NC(=O)[C@@H](N)CCSC)CSCc2cccc(c2)CSC[C@@H](C(N)=O)NC1=O` [GIP-254] (H-MYDWWPELCALIC-NH2; linker 9-13 via mXylylene): the IC50 was 10 to 79.4 nM. In the case of `CC[C@H](C)[C@@H]1NC(=O)[C@H](CC(C)C)NC(=O)[C@H](C)NC(=O)[C@@H](NC(=O)[C@H](CC(C)C)NC(=O)[C@H](CCC(=O)O)NC(=O)[C@@H]2CCCN2C(=O)[C@H](Cc2c[nH]c3ccccc23)NC(=O)[C@H](Cc2c[nH]c3ccccc23)NC(=O)CCC(=O)O)CSCc2cccc(c2)CSC[C@@H](C(N)=O)NC1=O` [GIP-255, HO-Succinyl-Trp-Trp-Pro-Glu-Leu-[Cys(3MeBn)-Ala-Leu-Ile-Cys]-NH2] (Suc-WWPELCALIC-NH2; linker 6-10 via mXylylene), the IC50 is 10 to 79.4 nM.

`CC[C@H](C)[C@@H]1NC(=O)[C@H](CC(C)C)NC(=O)[C@H](C)NC(=O)[C@@H](NC(=O)[C@H](CC(C)C)NC(=O)[C@H](CCC(=O)O)NC(=O)[C@@H]2CCCN2C(=O)[C@H](Cc2c[nH]c3ccccc23)NC(=O)[C@H](Cc2c[nH]c3ccccc23)NC(=O)CCC(=O)O)CSCc2cccc(c2)CSCCNC1=O` [GIP-256, HO-Succinyl-Trp-Trp-Pro-Glu-Leu-[Cys(3MeBn)-Ala-Leu-Ile-AET]] (Suc-WWPELCALI; linker 6-C via X7): the IC50 is 10 to 79.4 nM. Still for that read-out and setting: next, `CC[C@H](C)[C@@H]1NC(=O)[C@H](CC(C)C)NC(=O)[C@H](C)NC(=O)[C@@H](NC(=O)[C@H](CC(C)C)NC(=O)[C@H](CCC(=O)O)NC(=O)[C@@H]2CCCN2C(=O)[C@H](Cc2c[nH]c3ccccc23)NC(=O)[C@H](Cc2c[nH]c3ccccc23)NC(=O)CCC(=O)O)CSCc2cccc(n2)CSC[C@@H](C(N)=O)NC1=O` [GIP-257, HO-Succinyl-Trp-Trp-Pro-Glu-Leu-[Cys(2Lut)-Ala-Leu-Ile-Cys]-NH2] (Suc-WWPELCALIC-NH2; linker 6-10 via Pyridine(2,6-diCH2)): 10 to 79.4 nM.

Still in this test, the particulars now being: competition with 20 nM GIP-057, 4° C., 1 hour, read-out: pIC50 Category (converted).
Turning to `CC(=O)N[C@@H](CC(=O)O)C(=O)N[C@@H](Cc1c[nH]c2ccccc12)C(=O)N[C@@H](Cc1c[nH]c2ccc(Cl)cc12)C(=O)N1C[C@H](O)C[C@H]1C(=O)N[C@@H](CCC(=O)O)C(=O)N[C@H](CC(C)C)C(=O)N[C@H]1CSCc2cccc(n2)CSC[C@@H](C(N)=O)NC(=O)[C@H](C(C)(C)C)NC(=O)[C@H](CC(C)C)NC(=O)C2(CCOCC2)NC1=O` [GIP-238, Ac-Asp-Trp-5Clw-Hyp-Glu-leu-[Cys(2Lut)-Thp-Leu-Tle-Cys]-NH2] (Ac-DW[Trp(5-Cl)][Hyp]E[dL]C[Thp]L[Tle]C-NH2; linker 7-11 via Pyridine(2,6-diCH2)), the IC50 was below 10 nM.

As for `CC[C@H](C)[C@@H]1NC(=O)[C@H](CC(C)C)NC(=O)C2(CCOCC2)NC(=O)[C@@H](NC(=O)[C@@H](CC(C)C)NC(=O)[C@H](CCC(=O)O)NC(=O)[C@@H]2C[C@@H](N)CN2C(=O)[C@H](Cc2c[nH]c3ccc(Cl)cc23)NC(=O)[C@H](Cc2c[nH]c3ccccc23)NC(=O)[C@H](CC(=O)O)NC(C)=O)CSCc2cccc(n2)CSC[C@@H](C(N)=O)NC1=O` [GIP-239, Ac-Asp-Trp-5Clw-Tap-Glu-leu-[Cys(2Lut)-Thp-Leu-Ile-Cys]-NH2] (Ac-DW[Trp(5-Cl)][Pro(4R-NH2)]E[dL]C[Thp]LIC-NH2; linker 7-11 via Pyridine(2,6-diCH2)), the IC50 was below 10 nM. On to `CC[C@H](C)[C@@H]1NC(=O)[C@H](CC(C)C)NC(=O)[C@H](CCCCN)NC(=O)[C@@H](NC(=O)[C@H](CC(C)C)NC(=O)[C@H](CCC(=O)O)NC(=O)[C@@H]2CCCN2C(=O)[C@H](Cc2c[nH]c3ccccc23)NC(=O)[C@H](Cc2c[nH]c3ccccc23)NC(=O)[C@H](CC(=O)O)NC(=O)[C@H](Cc2ccc(O)cc2)NC(=O)[C@@H](N)CCSC)CSCc2cccc(c2)CSC[C@@H](C(N)=O)NC1=O` [GIP-243] (H-MYDWWPELCKLIC-NH2; linker 9-13 via mXylylene), for which the IC50 was 10 to 79.4 nM.
